Values of other authors, collected in PMC12260505, “First-in-Human Phase I/IIa Study of the First-in-Class CDK2/4/6 Inhibitor PF-06873600 Alone or with Endocrine Therapy in Patients with Breast Cancer” (Clinical Cancer Research, 2025).

System: HR+/HER2− mBC, post-ET patient population
Conditions: palbociclib and fulvestrant, PALOMA3; cited from earlier work

Compound: CC(=O)c1c(C)c2cnc(Nc3ccc(N4CCNCC4)cn3)nc2n(C2CCCC2)c1=O [palbociclib]
- Median PFS: 9.5 months
- ORR: 24.6%
